In PubChem BioAssay AID1259407 (Chemical Carcinogenesis Research Information System (CCRIS), 2018):
Activity calls are given as the source filed them. No rule for the calls is given here.

System: CCRIS mutagenicity, Ames/micronucleus/aberration tests
Assay: CCRIS mutagenicity studies
[1] = Test System: AMES SALMONELLA TYPHIMURIUM, Strain/Indicator: TA98, Metabolic Activation: NONE, Method: PREINCUBATION
[2] = Test System: AMES SALMONELLA TYPHIMURIUM, Strain/Indicator: TA98, Metabolic Activation: NONE, Method: STANDARD PLATE
[3] = Test System: AMES SALMONELLA TYPHIMURIUM, Strain/Indicator: TA100, Metabolic Activation: NONE, Method: PREINCUBATION
[4] = Test System: AMES SALMONELLA TYPHIMURIUM, Strain/Indicator: TA1535, Metabolic Activation: NONE, Method: STANDARD PLATE
[5] = Test System: AMES SALMONELLA TYPHIMURIUM, Strain/Indicator: TA1537, Metabolic Activation: NONE, Method: STANDARD PLATE
[6] = Test System: AMES SALMONELLA TYPHIMURIUM, Strain/Indicator: TA100, Metabolic Activation: NONE, Method: STANDARD PLATE

`[O]=[Cr](=[O])([OH])[O][Cr](=[O])(=[O])[OH]` was tested, and the mutagenic call (Test System: AMES SALMONELLA TYPHIMURIUM, Strain/Indicator: TA92, Metabolic Activation: NONE, Method: STANDARD PLATE) was “active; positive”, the mutagenic call (Test System: AMES SALMONELLA TYPHIMURIUM, Strain/Indicator: TA97, Metabolic Activation: HAMSTER, LIVER, S-9, AROCLOR 1254 (30%), Method: PREINCUBATION) was “active; positive” and the mutagenic call (Test System: AMES SALMONELLA TYPHIMURIUM, Strain/Indicator: TA97, Metabolic Activation: NONE, Method: PREINCUBATION) was “active; positive”. The mutagenic call (Test System: AMES SALMONELLA TYPHIMURIUM, Strain/Indicator: TA97, Metabolic Activation: RAT, LIVER, S-9, AROCLOR 1254 (30%), Method: PREINCUBATION) was “active; positive”, the mutagenic call (Test System: AMES SALMONELLA TYPHIMURIUM, Strain/Indicator: TA97A, Metabolic Activation: NONE, Method: MICROSUSPENSION-PREINCUBATION) was “active; positive” and the mutagenic call (Test System: AMES SALMONELLA TYPHIMURIUM, Strain/Indicator: TA97A, Metabolic Activation: RAT, LIVER, S-9, AROCLOR 1254, Method: MICROSUSPENSION-PREINCUBATION) was “active; positive”. The mutagenic call (Test System: AMES SALMONELLA TYPHIMURIUM, Strain/Indicator: TA98, Metabolic Activation: HAMSTER, LIVER, S-9, AROCLOR 1254 (30%), Method: PREINCUBATION) was “active; positive”, the mutagenic call (Test System: AMES SALMONELLA TYPHIMURIUM, Strain/Indicator: TA98, Metabolic Activation: NONE, Method: MICROSUSPENSION-PREINCUBATION) was “active; positive” and the mutagenic call [1] was “active; positive”. For the same molecule, the mutagenic call [2] was “active; positive”, the mutagenic call (Test System: AMES SALMONELLA TYPHIMURIUM, Strain/Indicator: TA98, Metabolic Activation: RAT, LIVER, S-9, AROCLOR 1254 (30%), Method: PREINCUBATION) was “active; positive” and the mutagenic call (Test System: AMES SALMONELLA TYPHIMURIUM, Strain/Indicator: TA98, Metabolic Activation: RAT, LIVER, S-9, AROCLOR 1254, Method: MICROSUSPENSION-PREINCUBATION) was “active; positive”. The mutagenic call (Test System: AMES SALMONELLA TYPHIMURIUM, Strain/Indicator: TA98, Metabolic Activation: RAT, LIVER, S-9, Method: STANDARD PLATE) was “active; positive”, the mutagenic call (Test System: AMES SALMONELLA TYPHIMURIUM, Strain/Indicator: TA100, Metabolic Activation: HAMSTER, LIVER, S-9, AROCLOR 1254 (30%), Method: PREINCUBATION) was “active; positive” and the mutagenic call (Test System: AMES SALMONELLA TYPHIMURIUM, Strain/Indicator: TA100, Metabolic Activation: NONE, Method: MICROSUSPENSION-PREINCUBATION) was “active; positive”. For the same molecule, the mutagenic call [3] was “active; positive”, the mutagenic call (Test System: AMES SALMONELLA TYPHIMURIUM, Strain/Indicator: TA100, Metabolic Activation: RAT, LIVER, S-9, AROCLOR 1254 (30%), Method: PREINCUBATION) was “active; positive” and the mutagenic call (Test System: AMES SALMONELLA TYPHIMURIUM, Strain/Indicator: TA100, Metabolic Activation: RAT, LIVER, S-9, AROCLOR 1254, Method: MICROSUSPENSION-PREINCUBATION) was “active; positive”. For the same molecule, the mutagenic call (Test System: AMES SALMONELLA TYPHIMURIUM, Strain/Indicator: TA100, Metabolic Activation: RAT, LIVER, S-9, AROCLOR 1254, Method: STANDARD PLATE) was “active; positive”, the mutagenic call (Test System: AMES SALMONELLA TYPHIMURIUM, Strain/Indicator: TA100, Metabolic Activation: RAT, LIVER, S-9, Method: STANDARD PLATE) was “active; positive” and the mutagenic call (Test System: AMES SALMONELLA TYPHIMURIUM, Strain/Indicator: TA102, Metabolic Activation: NONE, Method: FLUCTUATION TEST) was “active; positive”. The mutagenic call (Test System: AMES SALMONELLA TYPHIMURIUM, Strain/Indicator: TA102, Metabolic Activation: NONE, Method: MICROSUSPENSION-PREINCUBATION) was “active; positive”, the mutagenic call (Test System: AMES SALMONELLA TYPHIMURIUM, Strain/Indicator: TA102, Metabolic Activation: NONE, Method: STANDARD PLATE) was “active; positive” and the mutagenic call (Test System: AMES SALMONELLA TYPHIMURIUM, Strain/Indicator: TA102, Metabolic Activation: RAT, LIVER, S-9, AROCLOR 1254, Method: MICROSUSPENSION-PREINCUBATION) was “active; positive”. For the same molecule, the mutagenic call (Test System: AMES SALMONELLA TYPHIMURIUM, Strain/Indicator: TA103, Metabolic Activation: NONE, Method: STANDARD PLATE) was “active; positive”, the mutagenic call (Test System: AMES SALMONELLA TYPHIMURIUM, Strain/Indicator: TA104, Metabolic Activation: NONE, Method: STANDARD PLATE) was “active; positive” and the mutagenic call [4] was “inactive; negative”. For the same molecule, the mutagenic call (Test System: AMES SALMONELLA TYPHIMURIUM, Strain/Indicator: TA1535, Metabolic Activation: RAT, LIVER, S-9, Method: STANDARD PLATE) was “inactive; negative”, the mutagenic call [5] was “inactive; negative” and the mutagenic call (Test System: AMES SALMONELLA TYPHIMURIUM, Strain/Indicator: TA1537, Metabolic Activation: RAT, LIVER, S-9, Method: STANDARD PLATE) was “inactive; negative”. For the same molecule, the mutagenic call (Test System: AMES SALMONELLA TYPHIMURIUM, Strain/Indicator: TA1538, Metabolic Activation: NONE, Method: STANDARD PLATE) was “inactive; negative”, the mutagenic call (Test System: AMES SALMONELLA TYPHIMURIUM, Strain/Indicator: TA1538, Metabolic Activation: RAT, LIVER, S-9, Method: STANDARD PLATE) was “inactive; negative” and the mutagenic call (Test System: AMES SALMONELLA TYPHIMURIUM, Strain/Indicator: TA2638, Metabolic Activation: NONE, Method: PREINCUBATION) was “active; positive”. For the same molecule, the mutagenic call (Test System: AMES SALMONELLA TYPHIMURIUM, Strain/Indicator: TA2638, Metabolic Activation: NONE, Method: STANDARD PLATE) was “active; positive”, the mutagenic call (Test System: AMES SALMONELLA TYPHIMURIUM, Strain/Indicator: TA2638A, Metabolic Activation: NONE, Method: STANDARD PLATE) was “active; positive” and the mutagenic call (Test System: E. COLI, Strain/Indicator: WP2 (PKM101), Metabolic Activation: NONE, Method: STANDARD PLATE) was “active; positive”. For the same molecule, the mutagenic call (Test System: E. COLI, Strain/Indicator: WP2 UVRA (PKM101), Metabolic Activation: NONE, Method: STANDARD PLATE) was “active; positive”, the mutagenic call (Test System: E. COLI, Strain/Indicator: WP2 UVRA, Metabolic Activation: NONE, Method: SPOT TEST) was “active; positive” and the mutagenic call (Test System: E. COLI, Strain/Indicator: WP2 UVRA, Metabolic Activation: NONE, Method: STANDARD PLATE) was “active; positive”. For the same molecule, the mutagenic call (Test System: UDS HUMAN AMNION FL CELL LINE, Strain/Indicator: THY INCORP, Metabolic Activation: NONE, Method: LIQUID SCINTILLATION COUNTING) was “active; positive”.
In the case of `C[C@]12O[C@H]1[C@H]1CCCC[C@@H]1c1ccccc12`, the mutagenic call [2] is reported as “inactive; negative” and the mutagenic call [6] is reported as “inactive; negative”.
In the case of `Cc1cc2c(c(O)c1O)C(=O)c1c(O)cc(O)cc1C2=O`, the mutagenic call [2] is reported as “inactive; negative”, the mutagenic call [6] is reported as “inactive; negative” and the mutagenic call [4] is reported as “inactive; negative”. For the same molecule, the mutagenic call [5] was “active; positive” and the mutagenic call (Test System: AMES SALMONELLA TYPHIMURIUM, Strain/Indicator: TA1537, Metabolic Activation: RAT, LIVER, S-9, PCB, Method: STANDARD PLATE) was “active; positive”.
In the case of `NC(Cc1ccc(F)cc1)C(=O)O` (centres undefined), the mutagenic call (Test System: AMES SALMONELLA TYPHIMURIUM, Strain/Indicator: TA98, Metabolic Activation: HAMSTER, LIVER, S-9, AROCLOR 1254 (10%), Method: PREINCUBATION) is reported as “inactive; negative”, the mutagenic call [1] is reported as “inactive; negative” and the mutagenic call (Test System: AMES SALMONELLA TYPHIMURIUM, Strain/Indicator: TA98, Metabolic Activation: RAT, LIVER, S-9, AROCLOR 1254 (10%), Method: PREINCUBATION) is reported as “inactive; negative”. The mutagenic call (Test System: AMES SALMONELLA TYPHIMURIUM, Strain/Indicator: TA100, Metabolic Activation: HAMSTER, LIVER, S-9, AROCLOR 1254 (10%), Method: PREINCUBATION) was “inactive; negative”, the mutagenic call [3] was “inactive; negative” and the mutagenic call (Test System: AMES SALMONELLA TYPHIMURIUM, Strain/Indicator: TA100, Metabolic Activation: RAT, LIVER, S-9, AROCLOR 1254 (10%), Method: PREINCUBATION) was “inactive; negative”. The mutagenic call (Test System: AMES SALMONELLA TYPHIMURIUM, Strain/Indicator: TA1535, Metabolic Activation: HAMSTER, LIVER, S-9, AROCLOR 1254 (10%), Method: PREINCUBATION) was “inactive; negative”, the mutagenic call (Test System: AMES SALMONELLA TYPHIMURIUM, Strain/Indicator: TA1535, Metabolic Activation: NONE, Method: PREINCUBATION) was “inactive; negative” and the mutagenic call (Test System: AMES SALMONELLA TYPHIMURIUM, Strain/Indicator: TA1535, Metabolic Activation: RAT, LIVER, S-9, AROCLOR 1254 (10%), Method: PREINCUBATION) was “inactive; negative”. The mutagenic call (Test System: AMES SALMONELLA TYPHIMURIUM, Strain/Indicator: TA1537, Metabolic Activation: HAMSTER, LIVER, S-9, AROCLOR 1254 (10%), Method: PREINCUBATION) was “inactive; negative”, the mutagenic call (Test System: AMES SALMONELLA TYPHIMURIUM, Strain/Indicator: TA1537, Metabolic Activation: NONE, Method: PREINCUBATION) was “inactive; negative” and the mutagenic call (Test System: AMES SALMONELLA TYPHIMURIUM, Strain/Indicator: TA1537, Metabolic Activation: RAT, LIVER, S-9, AROCLOR 1254 (10%), Method: PREINCUBATION) was “inactive; negative”.
